From ChEMBL document CHEMBL3885861, “Open TG-GATES”

Organism: Rattus norvegicus
Assay: Open TG-GATES - Regimen: Single
Assay type: toxicity, organism-based, Sprague-Dawley
Set-up: regimen Single, gender Male, age 6 weeks
Settings: in vivo, po, 300 mg/kg, route gavage, dose level Low; for APTT / Bas / Eos / Fbg / Hb / Ht / Lym / MCH / MCHC / MCV / Mono / Neu / PT / Plat / RBC / Ret / WBC: tissue Blood; for KIDNEY_L / KIDNEY_R / KIDNEY_TOTAL: tissue Kidney; for LIVER: tissue Liver; for A/G / ALP / ALT / AST / BUN / CRE / Ca / Cl / DBIL / GLC / IP / K / LDH / Na / PL / RALB / TBIL / TC / TG / TP / gamma-GTP: tissue Plasma

Work on `CC(=O)[C@@]1(O)CC[C@H]2[C@@H]3C=C(Cl)C4=CC(=O)CC[C@]4(C)[C@H]3CC[C@@]21C` [CHLORMADINONE] yielded a TERMINAL_BW (3 h) of 219.9 g, an APTT (3 h) of 22.1 s and a Bas (3 h) of 0%. The Eos (3 h) was 1%, the Fbg (3 h) was 310.8 mg/dL and the Hb (3 h) was 13 g/dL. It also gave a Ht (3 h) of 40.3%, a Lym (3 h) of 75% and an MCH (3 h) of 20.5 pg. The MCHC (3 h) was 32.4%, the MCV (3 h) was 63.3 fL and the Mono (3 h) was 1.8%. For the same compound, the Neu (3 h) was 22.4%, the PT (3 h) was 15.2 s and the Plat (3 h) was 115.5 x10_4/uL. It also gave an RBC (3 h) of 637.8 x10_4/ul, a Ret (3 h) of 7.3% and a WBC (3 h) of 52.5 x10_2/uL. It also gave a KIDNEY_L (3 h) of 0.9 g, a KIDNEY_R (3 h) of 1 g and a KIDNEY_TOTAL (3 h) of 1.9 g. The LIVER (3 h) was 10.4 g, the A/G (3 h) was 1.3 and the ALP (3 h) was 1442.2 IU/L. The ALT (3 h) was 48 IU/L, the AST (3 h) was 78.6 IU/L and the BUN (3 h) was 16 mg/dL. The CRE (3 h) was 0.2 mg/dL, the Ca (3 h) was 11 mg/dL and the Cl (3 h) was 105.4 meq/L. The DBIL (3 h) was 0 mg/dL, the GLC (3 h) was 181.4 mg/dL and the IP (3 h) was 9.3 mg/dL. It also gave a K (3 h) of 4.2 meq/L, an LDH (3 h) of 140.6 IU/L and a Na (3 h) of 143 meq/L. For the same compound, the PL (3 h) was 147.2 mg/dL, the RALB (3 h) was 3.1 g/dL and the TBIL (3 h) was 0.024 mg/dL. It also gave a TC (3 h) of 79.8 mg/dL, a TG (3 h) of 51.6 mg/dL and a TP (3 h) of 5.6 g/dL. For the same compound, the gamma-GTP (3 h) was 1.6 IU/L, the TERMINAL_BW (6 h) was 217.9 g and the APTT (6 h) was 24.4 s. The Bas (6 h) was 0%, the Eos (6 h) was 0.8% and the Fbg (6 h) was 317.6 mg/dL. It also gave a Hb (6 h) of 13.1 g/dL, a Ht (6 h) of 40.7% and a Lym (6 h) of 77.2%. The MCH (6 h) was 20.6 pg, the MCHC (6 h) was 32.3% and the MCV (6 h) was 63.8 fL. For the same compound, the Mono (6 h) was 1.8%, the Neu (6 h) was 20% and the PT (6 h) was 15.6 s. It also gave a Plat (6 h) of 106.2 x10_4/uL, an RBC (6 h) of 638.2 x10_4/ul and a Ret (6 h) of 7.9%. For the same compound, the WBC (6 h) was 68.9 x10_2/uL, the KIDNEY_L (6 h) was 1 g and the KIDNEY_R (6 h) was 1 g. For the same compound, the KIDNEY_TOTAL (6 h) was 2 g, the LIVER (6 h) was 10.3 g and the A/G (6 h) was 1.3. The ALP (6 h) was 1567.8 IU/L, the ALT (6 h) was 39.4 IU/L and the AST (6 h) was 72.8 IU/L. For the same compound, the BUN (6 h) was 12.6 mg/dL, the CRE (6 h) was 0.1 mg/dL and the Ca (6 h) was 10.5 mg/dL. For the same compound, the Cl (6 h) was 105.8 meq/L, the DBIL (6 h) was 0 mg/dL and the GLC (6 h) was 181.8 mg/dL. For the same compound, the IP (6 h) was 9.2 mg/dL, the K (6 h) was 4.4 meq/L and the LDH (6 h) was 159.6 IU/L. It also gave a Na (6 h) of 141.4 meq/L, a PL (6 h) of 134.8 mg/dL and an RALB (6 h) of 3.1 g/dL. It also gave a TBIL (6 h) of 0.032 mg/dL, a TC (6 h) of 80.8 mg/dL and a TG (6 h) of 35 mg/dL. The TP (6 h) was 5.6 g/dL, the gamma-GTP (6 h) was 1.8 IU/L and the TERMINAL_BW (9 h) was 219.9 g. It also gave an APTT (9 h) of 24.1 s, a Bas (9 h) of 0% and an Eos (9 h) of 0.2%. For the same compound, the Fbg (9 h) was 325.6 mg/dL, the Hb (9 h) was 13.2 g/dL and the Ht (9 h) was 41%. For the same compound, the Lym (9 h) was 79.4%, the MCH (9 h) was 20.2 pg and the MCHC (9 h) was 32%. It also gave an MCV (9 h) of 63.1 fL, a Mono (9 h) of 1% and a Neu (9 h) of 18.8%. It also gave a PT (9 h) of 15.6 s, a Plat (9 h) of 113.9 x10_4/uL and an RBC (9 h) of 651.2 x10_4/ul. For the same compound, the Ret (9 h) was 7.9%, the WBC (9 h) was 52.5 x10_2/uL and the KIDNEY_L (9 h) was 1 g. The KIDNEY_R (9 h) was 1 g, the KIDNEY_TOTAL (9 h) was 2 g and the LIVER (9 h) was 10.4 g. The A/G (9 h) was 1.3, the ALP (9 h) was 1458.4 IU/L and the ALT (9 h) was 39.4 IU/L. It also gave an AST (9 h) of 72 IU/L, a BUN (9 h) of 14.2 mg/dL and a CRE (9 h) of 0.1 mg/dL. The Ca (9 h) was 10.8 mg/dL, the Cl (9 h) was 105.4 meq/L and the DBIL (9 h) was 0 mg/dL. The GLC (9 h) was 201.8 mg/dL, the IP (9 h) was 8.9 mg/dL and the K (9 h) was 4.5 meq/L. For the same compound, the LDH (9 h) was 153.6 IU/L, the Na (9 h) was 140.6 meq/L and the PL (9 h) was 152 mg/dL. For the same compound, the RALB (9 h) was 3.2 g/dL, the TBIL (9 h) was 0.026 mg/dL and the TC (9 h) was 83 mg/dL. For the same compound, the TG (9 h) was 79 mg/dL, the TP (9 h) was 5.6 g/dL and the gamma-GTP (9 h) was 1.6 IU/L. It also gave a TERMINAL_BW (24 h) of 225.1 g, an APTT (24 h) of 25.2 s and a Bas (24 h) of 0%. The Eos (24 h) was 1.2%, the Fbg (24 h) was 336.2 mg/dL and the Hb (24 h) was 13.8 g/dL. It also gave a Ht (24 h) of 41.9%, a Lym (24 h) of 80.4% and an MCH (24 h) of 21.1 pg. The MCHC (24 h) was 32.9%, the MCV (24 h) was 64 fL and the Mono (24 h) was 2.4%. It also gave a Neu (24 h) of 15.2%, a PT (24 h) of 15.5 s and a Plat (24 h) of 121.2 x10_4/uL. For the same compound, the RBC (24 h) was 654.4 x10_4/ul, the Ret (24 h) was 7.7% and the WBC (24 h) was 124 x10_2/uL. The KIDNEY_L (24 h) was 1 g, the KIDNEY_R (24 h) was 1 g and the KIDNEY_TOTAL (24 h) was 2 g. It also gave an LIVER (24 h) of 11 g, an A/G (24 h) of 1.3 and an ALP (24 h) of 1795.2 IU/L. For the same compound, the ALT (24 h) was 46.2 IU/L, the AST (24 h) was 73 IU/L and the BUN (24 h) was 18.8 mg/dL. For the same compound, the CRE (24 h) was 0.2 mg/dL, the Ca (24 h) was 10.6 mg/dL and the Cl (24 h) was 106.4 meq/L. For the same compound, the DBIL (24 h) was 0 mg/dL, the GLC (24 h) was 184 mg/dL and the IP (24 h) was 8.1 mg/dL. The K (24 h) was 4.5 meq/L, the LDH (24 h) was 204.8 IU/L and the Na (24 h) was 141 meq/L. It also gave a PL (24 h) of 169.2 mg/dL, an RALB (24 h) of 3.1 g/dL and a TBIL (24 h) of 0.004 mg/dL. It also gave a TC (24 h) of 83.8 mg/dL, a TG (24 h) of 175 mg/dL and a TP (24 h) of 5.6 g/dL. For the same compound, the gamma-GTP (24 h) was 2 IU/L.
